Where a name gives a salt, the structure may show the parent alone.
How the values were obtained:
Type in all cases: cell-based, human
[1] = test system: OE33P radio-sensitive oesophageal adenocarcinoma cells; test: Cell number after 24 hours drug treatment (crystal violet absorbance), OE33P; conditions: 10 μM
Experimental: (§1) OE33P radio-sensitive and OE33R radio-resistant oesophageal adenocarcinoma cells were used to test the effects of the compounds 11B HCl, […], 11B CC16 HCl, 11B 471 and 11B 268 on cell number. Cells were maintained in RPMI media supplemented with 10% foetal calf serum, penicillin (100 U/ml) and streptomycin (100 gig/ml). A total of 11.000 or 13,000 cells, in 100 μl media, were seeded per well in 24 well plates and left to incubate for 24 hours, with an additional 150 μl media added after 5 hours. The media was replaced with solutions containing 10 μM of 11B HCl, 11B CC11 HCl, 11B CC16 HCl, 11B 471, 11B 268 or fresh media as a control. Each drug had 6 replicates. After 24 hours of treatment, the cells were fixed with 1% glutaraldehyde for 15 minutes and then stained with crystal violet for 30 minutes. The plates were blotted and dried overnight. The cells were resuspended with 1% TritonX-100 and shaken for 15 minutes. The absorbance was read on a spectrophotometer at 590 nm.
(§2) OE33P radiosensitive and OE33R radioresistant cells were used to test the effects of the compound 11B_Z_HCl on toxicity. Cells were maintained in RPMI media supplemented with 10% foetal calf serum, penicillin (100 U/ml) and streptomycin (100 μg/ml). A total of 11,000 cells, in 100 μl media, were seeded per well in 24 well plates and left to incubate for 24 hours, with an additional 150 μl media added after 5 hours. The media was replaced with solutions containing 10 μM of 11B_Z_HCl or fresh media as a control. Each treatment had 6 replicates. After 24 hours of treatment, the cells were fixed with 1% glutaraldehyde for 15 minutes and then stained with crystal violet for 30 minutes. The plates were blotted and dried overnight. The cells were resuspended with 1% TritonX-100 and shaken for 15 minutes. The absorbance was read on a spectrophotometer at 590 nm.

[2] = test system: OE33R radio-resistant oesophageal adenocarcinoma cells; test: Cell number after 24 hours drug treatment (crystal violet absorbance), OE33R; conditions: 10 μM
Experimental: as §1, §2

[3] = test system: OE33P radiosensitive oesophageal adenocarcinoma cells; test: Quantification of oxidative phosphorylation (OCR, Seahorse), OE33P; conditions: 10 μM, 24 hours
Experimental: OE33P radiosensitive and OE33R radio-resistant oesophageal adenocarcinoma cells were used to test the effects of the compounds 11B HCl, 11B CC11 HCl, 11B CC16 HCl, 11B 471 and 11B 268 on oxidative phosphorylation. Cells were maintained in RPMI media supplemented with 10% foetal calf serum, penicillin (100 U/ml) and streptomycin (100 μg/ml). A total of 11,000-13,000 cells, in 100 μl media, were seeded per well in 24 well plates and left to incubate for 24 hours, with an additional 150 μl media added after 5 hours. The media was replaced with solutions containing 10 μM of 11B HCl, 11B CC11 HCl, 11B CC16 HCl, 11B 471, 11B 268 or fresh media as a control. Each drug had 6 replicates. After 24 hours of treatment, media was replaced with modified DMEM supplemented with 0.5 mM glucose. Rates of oxidative phosphorylation were determined using Seahorse Biosciences metabolism technology. The media was disposed and the cells washed with PBS. The cells were fixed with 1% glutaraldehyde for 15 minutes and then stained with crystal violet for 30 minutes. The plates were blotted and dried overnight. The cells were resuspended with 1% TritonX-100 and shaken for 15 minutes. The absorbance was read on a spectrophotometer at 595 nm. Rates of oxidative phosphorylation were then normalised to cell number.
OE33P radiosensitive and OE33R radioresistant oesophageal adenocarcinoma cells were used to test the effects of the compound 11B_Z_HCl on oxidative phosphorylation. Cells were maintained in RPMI media supplemented with 10%0/foetal calf serum, penicillin […]) and streptomycin (100 μg/ml). A total of 11,000 cells, in 100 μl media, were seeded per well in 24 well plates and left to incubate for 24 hours, with an additional 150 μl media added after 5 hours. The media was replaced with solutions containing 10 μM of 11B_Z_HCl or fresh media as a control. Each treatment had 6 replicates. After 24 hours of treatment, media was replaced with modified DMEM supplemented with 0.5 mM glucose. Rates of oxidative phosphorylation were determined using Seahorse Biosciences metabolism technology. Rates of oxidative phosphorylation were then normalised to cell number.

[4] = test system: RAD51L3, MMS19, SMUG1, PARP1 and MLH1 in OE33P cells; test: Gene expression of DNA repair proteins (qPCR), OE33P; conditions: 10 μM, 24 hours, reductions of RAD51L3, MMS19, SMUG1 and PARP1
Experimental: (§3) O[…] radiosensitive and O[…] radioresistant oesophageal adenocarcinoma cells were used to test the effects of the above compounds on the gene expression of DNA repair proteins. Cells were maintained in RPMI media supplemented with 10% foetal calf serum, penicillin (100 U/ml) and streptomycin (100 μg/ml). Cells were seeded in 6 well plates and left to incubate for 24 hours. Cells were treated 10 μM of the above compounds or fresh media as a control. After 24 hours of treatment, RNA and cDNA was isolated and qPCR performed using primer probes to the following primer probes to RAD51L3, MMS19, SMUG1, PARP1 and MLH1. O[…] radiosensitive and O[…] radioresistant oesophageal adenocarcinoma cells were used to test the effects of compounds 11B HCl, 11B_CC11_HCl and 11B_Z_HCL on the gene expression of DNA repair proteins. Cells were maintained in RPMI media supplemented with 10% foetal calf serum, penicillin (100 U/ml) and streptomycin (100 μg/ml). Cells were seeded in 6 well plates and left to incubate for 24 hours. Cells were treated 10 μM of the above compounds or fresh media as a control. After 24 hours of treatment, RNA and cDNA was isolated and qPCR performed using primer probes to the following primer probes to RAD51L3, MMS19, SMUG1, PARP1 and MLH1.

[5] = test system: RAD51L3, MMS19, SMUG1, PARP1 and MLH1 in OE33R cells; test: Gene expression of DNA repair proteins (qPCR), OE33R; conditions: 10 μM, 24 hours, reduction of RAD51L3, MMS19, PARP1 and MLH1
Experimental: as §3

| SMILES | cell number, measured by % absorbance ([1]; HCl salt) | cell number, measured by % absorbance ([2]; HCl salt) | oxygen consumption rate (OCR), a measure of oxidative phosphorylation ([3]; HCl salt) | expression of DNA repair genes [4] | expression of DNA repair genes [5] | cell number, measured by % absorbance [1] | cell number, measured by % absorbance [2] | oxygen consumption rate (OCR), a measure of oxidative phosphorylation [3] |
| --- | --- | --- | --- | --- | --- | --- | --- | --- |
| Cl.Oc1ccccc1/C=C\c1ccc2ccccc2n1 [Compound 11B_Z_HCl, (Z)-2-(2-(Quinolin-2-yl)vinyl) phenol HCl salt] | did not significantly reduce cell number | did not significantly reduce cell number | Significantly Reduces | Reduction | Reduction | – | – | – |
| Oc1ccccc1/C=C/c1ccc2ccccc2n1 [11B HCl] | – | – | – | Reduction | Reduction | did not significantly reduce cell number | did not significantly reduce cell number | significantly reduce |
| C/C(=C\c1ccccc1O)c1ccc2ccccc2n1.Cl [Compound 11B_CC11_HCl, (E)-2-(2-Quinolin-2-yl-propenyl)-phenol HCl salt] | – | – | – | Reduction | Reduction | did not significantly reduce cell number | did not significantly reduce cell number | significantly reduce |

From patent publication US9815788B2, “Anti-angiogenic compounds” (University College Dublin National University of Ireland, …, priority 2012, dated 2017)
